Data from publication PMC4601023, “Novel anticancer agent, SQAP, binds to focal adhesion kinase and modulates its activity” (Scientific Reports, 2015).

Experiments:
[1] = test system: Akt phosphorylation at S473 in A549; assay: Akt phosphorylation in A549, Western blotting; type: cell-based, human; settings: A549, fibronectin, 1 h treatment
Experimental: Fibronectin is a glycoprotein located in the extracellular matrix that binds to integrins. […] A549 lung cancer cells have been used before for studying cell migration because of their metastatic model potential. A549 cells are also one of the tumor cell lines sensitive to SQMG[9]. Therefore, we studied the phosphorylation of FAK in A549 cells (Fig. 5C,D). SQAP could inhibit the phosphorylation of FAK at Y397 and Y925 after 1 h treatment in a dose dependent manner. […] We also examined paxillin and Akt phosphorylation in A549 as downstream targets of FAK. […] We hypothesize that SQAP diminish on Akt phosphorylation being more readily in A549 cancer cells than in HUVEC endothelial cells might be due to a higher Akt basal activity on cancer cells.
Cells were harvested and solubilized in RIPA buffer (20 mM Tris-HCl, pH 7.5, 1% Sodium deoxycholate, 150 mM NaCl, 5 mM EDTA, 1% Triton X-100, 0.1% SDS, 0.1%, 1 mM PMSF, 1 mM vanadate and 1 μg/mL leupeptin). Protein quantification was determined using the DC protein assay kit (Bio-Rad, Hercules, CA, USA). A total of 15 μg of each protein sample were separated by SDS–PAGE gels and blotted onto polyvinylidene difluoride membranes (Merck, Kenilworth, NJ, US). […]

[2] = target: VEGF (Homo sapiens, UniProt P15692); assay: SPR analysis of SQAP-VEGF interaction; type: binding; settings: data not shown
Source text: The phosphorylation of FAK in response to VEGF plays an important role in the regulation of endothelial cell migration during angiogenesis. Therefore we hypothesized that SQAP activity could potentially be mediated through binding to FAK. […] In this region, FAK interacts with paxillin through FAT domain and becomes autophosphorylated on Y397[29][30]. Y397 is an autophosphorylation site which is crucial for FAK activity and has been related to apoptosis and tumor growth. FAK is also phosphorylated at Y925, leading to the regulation of adhesion turnover and cell motility. Thus we chose to study the FAK phosphorylation on Y397 and Y925 residues. Initially, we examined whether SQAP affected phosphorylation of FAK in HUVEC cells stimulated with VEGF in the presence or absence of SQAP. […] Since SQMG was previously reported to bind to VEGF[34], we could not rule out the possibility of a binding between SQAP and VEGF so we analyzed this interaction by SPR. […] Therefore, we investigated whether SQAP could inhibit FAK phosphorylation independently of VEGF. We analyzed FAK phosphorylation in the absence of VEGF and observed that SQAP inhibited the phosphorylation of FAK signal within 1 h in a VEGF independent manner (Fig. 5B). Additionally, we treated HUVEC with VEGF in the presence of SQMG and SQP.

[3] = test system: HUVEC cells; assay: WST-8 cell viability assay, HUVEC; type: cell-based, human; settings: 17 h, SQAP 10 and 20 µM
Experimental: HUVEC and A549 cells were seeded into a 96-well culture plate (2 × 10^4 cells/well). The following day, cells were treated with SQAP or vehicle in a medium containing 1% FBS and VEGF (50 ng/mL) for 17 h (HUVEC) or fibronectin (10 μg/mL) for 46 h (A549). Cell viability was measured using Cell Count Reagent SF (Nacalai Tesque, Kyoto, Japan) following the manufacturer’s instructions. Briefly, 1/10 volume of the WST-8 solution was added to each well, and the plates were incubated at 37 °C for 1 h. Then, cell viability was determined colorimetrically by measuring OD450 using a microplate reader on a Wallac ARVO 5X microplate reader (Perkin Elmer, Waltham, MA, USA).
control SQAP 10 µM SQAP 20 µM
Livecellswere measured with SF reagent under similarconditionsas describedin thewound healing
assayinFig.5. (A)HUVEC and (B)A549 cells.
(also on this page, place not known: Cell viability (%) Cell viability (%) Live cells were similar conditions as described in the wound assay in Fig. 5. (A) HUVEC (B) A549)

[4] = target: T1, MFE-2 (598–736) (Homo sapiens, UniProt P51659); assay: SPR analysis, immobilized His-tagged MFE-2 (598-736); type: binding; settings: Biacore 3000, CM5 chip, 25 °C, read-out: dissociation constant (KD) for MFE-2
T1 construct: For MFE-2 (598–736) DNA was amplified; made in house; host or cells: E. coli Rosetta 2 (DE3) pLysS
Source text: SPR was utilized as an independent confirmation of the kinetic parameters between SQAP and the putative binding proteins. […] The recombinant proteins were then expressed in Escherichia coli and purified to homogeneity. In addition, full length, His-tagged ADRM1 and GST-tagged HR23B (GST-HR23B) were also used. The proteins were first immobilized on a CM5 sensor chip of the SPR biosensor (Biacore 3000). For GST-HR23B analysis, a GST protein was additionally immobilized and used as a control in order to eliminate possible nonspecific binding of SQAP. SQAP samples at different concentrations were then injected over the proteins immobilized on the sensor chip. As a negative control we used sulfoquynovosylpropanediol (SQP), which lacks the fatty acid moiety of SQAP (Fig. 1). […]
The binding kinetics of SCP-2, MFE-2, ADRM1, HR23B and FAK with SQAP and SQP were analyzed on a Biacore 3000 instrument (GE Healthcare, Little Chalfont, UK). […] The buffer of purified peptides was exchanged to HBS-P (150 mM NaCl, 0.005% Surfactant P20, 10 mM HEPES-NaOH pH 7.4) using a PD 10 column (GE Healthcare, Little Chalfont, UK) and the concentrations were quantified using DC protein assay kit (Bio-Rad Laboratories, Hercules, CA, USA). […] Kinetic parameters were determined by analyzing the data using BIAevaluation 4.1 software (GE Healthcare, Little Chalfont, UK).

T1 sequence (P51659 598-736): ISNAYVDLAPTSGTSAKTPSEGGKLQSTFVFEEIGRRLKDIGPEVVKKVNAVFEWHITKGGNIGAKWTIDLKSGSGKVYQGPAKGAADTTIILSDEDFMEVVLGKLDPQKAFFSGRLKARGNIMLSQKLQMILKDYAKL
Sequence of VEGF (P15692 whole entry, species assumed, the tested form may be a part): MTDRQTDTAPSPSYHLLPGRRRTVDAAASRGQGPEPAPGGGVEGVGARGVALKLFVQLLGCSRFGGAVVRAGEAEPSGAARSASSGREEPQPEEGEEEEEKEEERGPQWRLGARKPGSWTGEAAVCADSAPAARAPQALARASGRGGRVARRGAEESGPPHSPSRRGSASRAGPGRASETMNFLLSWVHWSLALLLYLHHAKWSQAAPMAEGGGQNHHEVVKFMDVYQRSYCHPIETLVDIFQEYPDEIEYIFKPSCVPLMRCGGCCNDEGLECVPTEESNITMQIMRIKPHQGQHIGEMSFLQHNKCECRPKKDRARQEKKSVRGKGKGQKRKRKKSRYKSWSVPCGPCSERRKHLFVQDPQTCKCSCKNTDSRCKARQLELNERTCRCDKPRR

## CCCCCCCCCCCCCCCCCC(=O)OCCCO[C@H]1O[C@H](CS(=O)(=O)O)[C@@H](O)[C@H](O)[C@H]1O [SQAP, sulfoquynovosylacylpropanediol]
[1]
  Akt phosphorylation at S473: clearly downregulated
[2]
  binding to VEGF (SPR): did bind
[3]
  cytotoxicity (WST-8 cell viability): noncytotoxic
[4]
  Kd: 14.2 µM
